From patent publication US20220356163A1, “SMALL MOLECULE INHIBITORS OF Id PROTEINS” (MEMORIAL SLOAN KETTERING CANCER CENTER, priority 2019, published 2022)
Where two headings read alike, the source gives them in different places.

Assays:
[1] = tested on: colon tumors; assay: Azoxymethane (AOM) colon tumor model; assay type: in vivo, mouse; settings: 15 mg/kg i.p. for three weeks
Procedure: Spontaneous colon tumors will be induced by treating 30, 4-week old male A/J mice (Jackson Laboratory) with AOM (10 mg/kg; Sigma Aldrich) once a week by i.p. injection for 6 weeks. Mice will be maintained on AIN-93G purified diet (Research Diets) for the duration of the experiment. After a three-week treatment break mice will be treated i.p. for three weeks with DMSO, AGX51 (15 mg/kg) or a compound of the present technology (e.g., AGX-A; 15 mg/kg). Following the last injection, the mice will be euthanized and colon tumors will be formalin fixed to assess tumor burden. Tumor numbers and size will be determined in whole mounts of the tissues following methylene blue staining. For aid in future comparison with a compound of the present technology, the study was initially performed with DMSO and AGX51 where exemplary data of effects of AGX51 on sporadic tumor is shown FIGS. 35A-35D.

[2] = tested on: 4T1; assay: MTT assay, 4T1; assay type: cell-based; settings: Mus musculus
From the text: The 4T1 murine mammary tumor cell line and nine breast cancer cell lines representing the major breast cancer subtypes (ER+, HER2+, and TNBC) including MDA-MB-157, MDA-MB-436, MDA-MB-231, MDA-MB-453, MDA-MB-361, BT-474, SK-BR-3, MCF-7 and T47-D will be grown in RPMI or DMEM (Dulbecco's Modified Eagle Medium) media supplemented with 10% FBS (fetal bovine serum), 1% penicillin-streptomycin and 1% L-Glutamine. Patient derived xenograft cell lines BR7, BR11, and IBT will be established directly from breast cancer bone metastases specimens surgically resected from patients with informed consent. BR7 and BR11 specimens will be obtained from ER positive (HER2 negative and PR negative) metastatic breast cancer patients, while the IBT specimen will be obtained from a metastatic, triple negative breast cancer patient. Fresh tumor tissues will be quickly washed with ice cold PBS and minced into about 1-3 mm pieces in MEM medium (without FBS) using sterile razor blades. […] The cells will be treated with either 100 μM DMSO, AGX51, or a compound of the present technology such as AGX-A. The cell morphology and growth will be monitored daily for 1 week by microscopy for changes in morphology or cell death. […] Absorbance will then measured at 570 nm using a plate reader (Synergy 2, BioTek). […]

[3] = tested on: ID1 mRNA; assay: qRT-PCR for ID1 in HCT116 cells; assay type: cell-based; settings: 40 μM, 24 hours
Procedure: qRT-PCR. RNA was extracted using the RNeasy kit (Qiagen, Valencia, Calif., USA) and cDNA was generated from 1 μg of RNA using SuperScript IV First-Strand Synthesis System (Invitrogen, Grand Island, N.Y., USA). Quantitative PCR was performed using SYBR Green QuantiTect Primer Assay (Qiagen) according to manufacturer's instructions in a 7900HT Fast-Real Time PCR System Instrument (Applied Biosystems, Grand Island, N.Y., USA). Primer pairs for the individual genes were obtained from the bioinformatically validated QuantiTect Library and are as follows: ID1 (QT00230650), ID3 (QT01673336), and GAPDH (QT01192646). The fold changes in gene expression were calculated using the delta-delta CT method.

## CCC(=O)N(CCC(c1ccc2c(c1)OCO2)c1ccccc1OC)Cc1ccccc1 (racemic) [AGX51, N-(3-(benzo[d][1,3]dioxol-5-yl)-3-(2-methoxyphenyl)propyl)-N-benzylpropionamide]
[1]; p=0.008
  number of colon tumors: significant decrease in the number of colon tumors
[1]; significant for tumors >3 mm (p=0.004)
  colon tumor size vs DMSO group: smaller than those in the DMSO group
[2]; 24 h, 4T1, MTT, read-out: IC50 value after 24 hours of treatment
  IC50: 26.7 µM
[2]; 4T1 cells, FIG. 7D, read-out: IC50
  IC50: 26.7 µM
[3]
  ID1 mRNA levels: increase in ID1 mRNA levels
